From patent US20220195383A1, “METHOD FOR PRODUCING PLURIPOTENT STEM CELLS” (KANEKA CORPORATION, priority 2019, published 2022)

Experiments:
[1] = system: human iPS cell line RPChiPS771-2; test: Quantitative real-time PCR of marker genes after suspension culture with IWP-2; assay type: cell-based; conditions: IWP-2 2 μM, line RPChiPS771-2, day 10 (Example 2)
WNT3A protein [2] = test: ELISA analysis of WNT3A protein in culture supernatant, suspension culture with IWP-2, line RPChiPS771-2; assay type: cell-based, human; conditions: IWP-2 2 μM, line RPChiPS771-2, day 5 (Example 2)
[3] = system: human iPS cell line 201B7; test: Quantitative real-time PCR of marker genes after suspension culture with IWP-2; assay type: cell-based; conditions: IWP-2 2 μM, line 201B7, day 10 (Example 1)
Method: Cells on day 10 of the culture were treated with Accutase for 3 to 10 minutes and dispersed into single cells by pipetting. These cells were lysed using TRIzol™ Reagent (Thermo Fisher Scientific K.K.). Total RNA was isolated and purified from a cell solution obtained by lysing with TRIzol™ Reagent using a PureLink (registered trademark) RNA Mini kit (Thermo Fisher Scientific K.K.). A concentration of the purified RNA was measured using BioSpec-nano (Shimadzu Corporation), and 40 ng was separated. 2 μL of ReverTra Ace (registered trademark) qPCR RT Master Mix (TOYOBO CO., LTD.) and RNase Free dH2O were added to the separated RNA to prepare 10 μL. cDNA synthesis was performed using SimpliAmp Thermal Cycler (Thermo Fisher Scientific K.K.). […] A synthesized cDNA solution was diluted 100-fold with 10 mM Tris-HCl pH 8.0 (NACALAI TESQUE, INC.) and added to a 384-well PCR plate (Thermo Fisher Scientific K.K.) at 5 μL/well. KOD SYBR® qPCR Mix (TOYOBO CO., LTD.), a Forward primer prepared to 50 μM, a Reverse primer prepared to 50 μM, and DEPC-treated water (NACALAI TESQUE, INC.) were mixed at a ratio of 100:1:1:48. This mixed solution was added to the above-mentioned 384-well PCR plate at 15 μL/well and mixed. For the primers, bACT, OCT4, SOX2, Nanog, Brachyury, and SOX17 were used. The 384-well PCR plate was subjected to centrifugal separation to remove air bubbles in the wells, and quantitative real-time PCR analysis was performed using QuantStudio 7 Flex Real-Time PCR System (Thermo Fisher Scientific K.K.).
Suspension culture was performed under a condition in which an amount of WNT protein contained in a unit of a medium in contact with a unit area of a cell surface was maintained at 2.9×10^2 μg/mL·cm^2 or less. Specifically, the human iPS cell line 201B7 maintenance-cultured by the method in Step 1 of Example 1 was treated with Accutase for 3 to 5 minutes to release the cells from the dish. The cells were dispersed into single cells by pipetting. These cells were suspended in a StemFit (registered trademark) AK02N medium containing Y-27632 at a final concentration of 10 μM. A part of the cells was stained with trypan blue to measure the number of living cells. A cell suspension was prepared so that it contained 2×10^5 cells per mL using the StemFit (registered trademark) AK02N medium containing Y-27632 a final concentration of 10 μM. 4 mL of the cell suspension per well was seeded in a 6-well plate for suspension culture (Sumitomo Bakelite Co., Ltd.). IWP-2 (FUJIFILM Wako Pure Chemical Corporation), which is a WNT protein secretion inhibitor, was added to the seeded wells so that a final concentration was 2 μM. The plate in which the cells were seeded was gyrated on a rotary shaker (Optima Instruments) at a speed of 83 rpm so that a gyrating width (diameter) drew a circle of 25 mm along a horizontal plane, and suspension culture was performed at 37° C. in a 5% CO2 environment. The day when the cells were seeded was defined as day 0 of the culture. Passage was performed on day 5 of the culture, and suspension culture was performed until day 10 of the culture. Medium exchange was performed as follows. A total amount of the medium containing cell aggregates was recovered in a centrifuge tube and left to stand for about 5 minutes to precipitate the cell aggregates. Thereafter, the culture supernatant was removed. […]

WNT3A protein [4] = test: ELISA analysis of WNT3A protein in culture supernatant, suspension culture with IWP-2, line 201B7; assay type: cell-based, human; conditions: IWP-2 2 μM, line 201B7, day 5 (Example 1)
Method: A reagent and a reaction plate attached to a WNT3A ELISA kit (Aviva Systems Biology Corporation) were returned to room temperature. A vial of WNT3A Standard attached to the kit was subjected to centrifugal separation, and a powder in the vial was collected. After adding 1 mL of a diluent solution attached to the kit and mixing, the mixture was left to stand at room temperature for 15 minutes to prepare a WNT3A solution at a final concentration of 10 ng/mL. Based on the WNT3A solution at a final concentration of 10 ng/mL, the solution was diluted with the diluent solution attached to the kit to create WNT3A solution dilution series at final concentrations of 0.156 ng/mL, 0.313 ng/mL, 0.625 ng/mL, 1.25 ng/mL, 2.5 ng/mL, and 5 ng/mL. The dilution series of 0.156 ng/mL to 10 ng/mL and the culture supernatant on day 5 of the culture were added to the reaction plate at 100 μL/well, and a plate seal was attached. […]
Absorbance was measured at 450 nm (corrected wavelength 540 nm) using SpectraMax i3x Multi-Mode Detection Platform (Molecular Devices, LLC.), and a concentration of the WNT3A protein contained in the medium was calculated. Furthermore, an amount of the WNT3A protein of cells (pg/10^4 cells) was calculated from the results of measuring the number of living cells on day 5 of the culture according to the following equation. […]

Q: What does the source list for Cc1ccc2nc(NC(=O)CSc3nc4c(c(=O)n3-c3ccccc3)SCC4)sc2c1 [IWP-2]?
A: Relative gene expression level with respect to ACTB in 2 ^∧ Ct, Nanog [1]: 8.16 × 10^−1; Relative gene expression level with respect to ACTB in 2 ^∧ Ct, OCT4 [1]: 5.72 × 10^−1; Relative gene expression level with respect to ACTB in 2 ^∧ Ct, SOX2 [1]: 2.31 × 10^−2; Relative gene expression level with respect to ACTB in 2 ^∧ Ct, Brachyury ([1]; dash = not detected): not detected; Relative gene expression level with respect to ACTB in 2 ^∧ Ct, SOX17 ([1]; dash = not detected): not detected; Concentration of WNT3A protein contained in medium (WNT3A protein [2]): 53.3 pg/mL; Relative gene expression level with respect to ACTB in 2 ^∧ Ct, Nanog [3]: 1.30 × 10^−2; Relative gene expression level with respect to ACTB in 2 ^∧ Ct, OCT4 [3]: 1.77 × 10^−1; Relative gene expression level with respect to ACTB in 2 ^∧ Ct, SOX2 [3]: 2.83 × 10^−2; Relative gene expression level with respect to ACTB in 2 ^∧ Ct, Brachyury ([3]; dash = not detected): not detected; Relative gene expression level with respect to ACTB in 2 ^∧ Ct, SOX17 ([3]; dash = not detected): not detected; Amount of WNT3A protein contained in unit of medium in contact with unit area of cell surface, average value (n = 10) (WNT3A protein [4]): 2.7 × 10^2 μg/mL · cm^2; Concentration of WNT3A protein contained in medium (WNT3A protein [4]): 83.9 pg/mL
